From patent publication US7700284B2, “Reporter transcription unit populations and kits comprising same” (Attagene, Inc., priority 2004, dated 2010)

Columns and labels:
[1] = molecular target: GR RTU (Gal4DBD-GR fusion) (Homo sapiens, UniProt P04150); settings: HEK293, 10 uM, 6 hrs induction, versus non-induced cells
[2] = tested on: Elk-1 TAD RTU (ERK1/2 pathway); assay: MAPK pathway TAD RTU profiling in HEK293 cells, Elk-1 TAD RTU; type: cell-based, human; settings: HEK293, PMA 10 uM, 6 hours induction, versus control cells
ATF2 TAD RTU = assay: MAPK pathway TAD RTU profiling in HEK293 cells, ATF2 TAD RTU; type: cell-based, human; settings: HEK293, PMA 10 uM, 6 hours induction
c-Jun TAD RTU = assay: MAPK pathway TAD RTU profiling in HEK293 cells, c-Jun TAD RTU; type: cell-based, human; settings: HEK293, PMA 10 uM, 6 hours induction
metal-sensitive MTΔ RTU = assay: Multiplexed RTU reporter profiling in transfected HEK293 cells, MTΔ RTU; settings: HEK293, 100 μM, 6 hrs stimulation, 11-RTU library
NF-κB RTU = assay: Multiplexed RTU reporter profiling in transfected HEK293 cells, NF-κB RTU; settings: HEK293, 100 u per ml, 6 hrs stimulation, 11-RTU library

GR RTU (Gal4DBD-GR fusion), sequence (P04150 486-777): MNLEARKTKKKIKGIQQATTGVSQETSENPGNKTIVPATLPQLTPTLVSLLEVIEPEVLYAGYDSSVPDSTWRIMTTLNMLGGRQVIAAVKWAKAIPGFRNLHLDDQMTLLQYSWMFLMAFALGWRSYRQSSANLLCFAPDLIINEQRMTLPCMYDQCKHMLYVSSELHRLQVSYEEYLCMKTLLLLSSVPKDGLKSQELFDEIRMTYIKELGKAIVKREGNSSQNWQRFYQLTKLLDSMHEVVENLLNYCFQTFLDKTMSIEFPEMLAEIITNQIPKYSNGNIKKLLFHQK

dexamethasone [Dexamethazone] was tested. Which “increase of reporter peak produced by GR RTU” value [1] did it give?
Its value is 10 fold.

Which “activation of the Elk-1 TAD RTU” value [2] does the source give for `CCCCCCCCCCCCCC(=O)O[C@@H]1[C@@H](C)[C@@]2(O)[C@@H](C=C(CO)C[C@@]3(O)C(=O)C(C)=C[C@@H]23)[C@@H]2C(C)(C)[C@]12OC(C)=O` [PMA, 4α-Phorbol 12-myristate 13-acetate] here?
Its value is about 20 fold.

And the “activity of ATF2 TAD RTU” value (ATF2 TAD RTU)?
The value was “remained unchanged”.

What about the “activity of c-Jun TAD RTU” value (c-Jun TAD RTU) of the same molecule?
Its value is “remained unchanged”.

For `[Cl-].[Cl-].[Zn+2]` [ZnCl2], which “induction of MTΔ RTU (stimulated versus nonstimulated cells)” value (metal-sensitive MTΔ RTU) is on record?
The value was “induced”.

For “IL-1β: Human recombinant IL-1β purchased from Roche; NF-κB inducer”, which “activation of NF-κB RTU (stimulated versus nonstimulated cells)” value (NF-κB RTU) is on record?
The value was “specifically activated”.
